Laboratory results: ChEMBL document CHEMBL5055679, “Discovery of a Novel Androgen Receptor Antagonist Manifesting Evidence to Disrupt the Dimerization of the Ligand-Binding Domain via Attenuating the Hydrogen-Bonding Network Between the Two Monomers” (J Med Chem, 2021)
Activity calls are given as the source filed them. The rule behind the calls is not given here.

Legend:
[1] = target: T1, Androgen receptor (Homo sapiens) (UniProt P10275); test: Antagonist activity at androgen receptor in human LNCaP cells assessed as reduction in DHT-induced AR protein expression at 0.1 to 10 uM after 48 hrs by Western blot analysis; type: cell-based; conditions: dose 0.1-10 µM
T1 sequence (whole entry): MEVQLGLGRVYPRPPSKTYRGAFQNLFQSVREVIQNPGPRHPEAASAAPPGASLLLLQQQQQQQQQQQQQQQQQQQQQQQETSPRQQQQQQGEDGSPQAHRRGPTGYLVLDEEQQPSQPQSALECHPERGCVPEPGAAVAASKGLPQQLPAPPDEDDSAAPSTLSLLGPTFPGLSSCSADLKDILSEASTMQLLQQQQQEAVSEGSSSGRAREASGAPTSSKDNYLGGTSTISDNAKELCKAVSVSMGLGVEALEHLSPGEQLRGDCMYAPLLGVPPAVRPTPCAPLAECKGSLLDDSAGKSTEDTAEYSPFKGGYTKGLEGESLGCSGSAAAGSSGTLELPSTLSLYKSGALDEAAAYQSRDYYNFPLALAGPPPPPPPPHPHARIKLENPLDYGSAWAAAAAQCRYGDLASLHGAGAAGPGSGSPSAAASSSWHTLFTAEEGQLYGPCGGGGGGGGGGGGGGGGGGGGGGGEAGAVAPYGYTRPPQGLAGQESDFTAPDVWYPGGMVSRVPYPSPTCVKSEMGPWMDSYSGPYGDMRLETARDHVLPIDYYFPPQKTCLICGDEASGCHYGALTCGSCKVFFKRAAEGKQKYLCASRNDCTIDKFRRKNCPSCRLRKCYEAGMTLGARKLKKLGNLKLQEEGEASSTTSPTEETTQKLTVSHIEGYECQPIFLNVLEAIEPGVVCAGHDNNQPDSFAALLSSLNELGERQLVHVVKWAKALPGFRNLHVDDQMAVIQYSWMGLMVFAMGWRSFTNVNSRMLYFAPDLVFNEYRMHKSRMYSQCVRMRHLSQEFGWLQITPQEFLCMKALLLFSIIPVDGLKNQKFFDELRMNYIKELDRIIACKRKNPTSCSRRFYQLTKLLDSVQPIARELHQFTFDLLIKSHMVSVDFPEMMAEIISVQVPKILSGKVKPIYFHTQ

LNCaP [2] = test: Cytotoxicity against human LNCaP cells assessed as reduction in cell viability incubated for 72 hrs by MTT assay; type: functional, cell-based
[3] = target: T2, Progesterone receptor (Homo sapiens) (UniProt P06401); test: Agonist activity at progesterone receptor in human HEK293T cells by dual-Glo luciferase assay; type: cell-based
T2 sequence (whole entry): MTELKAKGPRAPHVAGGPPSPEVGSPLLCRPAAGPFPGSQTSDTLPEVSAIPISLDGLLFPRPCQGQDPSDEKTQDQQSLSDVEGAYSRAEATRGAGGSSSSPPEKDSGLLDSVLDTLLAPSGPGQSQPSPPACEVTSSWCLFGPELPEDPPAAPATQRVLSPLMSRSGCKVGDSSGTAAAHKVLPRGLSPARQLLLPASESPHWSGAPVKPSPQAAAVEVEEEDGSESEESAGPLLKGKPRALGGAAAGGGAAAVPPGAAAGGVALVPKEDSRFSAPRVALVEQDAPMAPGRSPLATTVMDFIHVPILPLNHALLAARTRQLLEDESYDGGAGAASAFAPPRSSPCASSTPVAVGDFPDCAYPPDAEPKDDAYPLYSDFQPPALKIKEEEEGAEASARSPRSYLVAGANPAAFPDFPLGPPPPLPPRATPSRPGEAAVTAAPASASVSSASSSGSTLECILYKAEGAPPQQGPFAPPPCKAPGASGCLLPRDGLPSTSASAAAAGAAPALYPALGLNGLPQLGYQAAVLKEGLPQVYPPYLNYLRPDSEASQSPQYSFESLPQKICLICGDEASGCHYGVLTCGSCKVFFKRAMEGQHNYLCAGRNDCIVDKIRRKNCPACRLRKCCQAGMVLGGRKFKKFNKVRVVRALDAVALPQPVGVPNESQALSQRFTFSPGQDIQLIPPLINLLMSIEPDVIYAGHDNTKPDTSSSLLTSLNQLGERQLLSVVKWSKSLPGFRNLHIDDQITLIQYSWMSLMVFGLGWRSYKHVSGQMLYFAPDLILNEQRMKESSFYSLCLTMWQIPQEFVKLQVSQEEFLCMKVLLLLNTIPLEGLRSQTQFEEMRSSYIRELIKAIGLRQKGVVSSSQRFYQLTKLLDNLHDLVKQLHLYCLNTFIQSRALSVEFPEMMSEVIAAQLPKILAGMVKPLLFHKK

[4] = Cytotoxicity against human chang cells assessed as reduction in cell viability at 50 uM incubated for 72 hrs by MTT assay; type: cell-based; conditions: chang liver
HeLa = test: Cytotoxicity against human HeLa cells assessed as reduction in cell viability at 50 uM incubated for 72 hrs by MTT assay; type: functional, cell-based
A549 [5] = test: Cytotoxicity against human A549 cells assessed as reduction in cell viability at low concentration incubated for 72 hrs by MTT assay; type: functional, cell-based
NIH3T3 = test: Cytotoxicity against mouse NIH3T3 cells assessed as reduction in cell viability incubated for 72 hrs by MTT assay; type: cell-based; conditions: nih3t3, 72 h
CWR22R = test: Cytotoxicity against human 22Rv1 cells assessed as reduction in cell viability incubated for 72 hrs by MTT assay; type: functional, cell-based
LNCaP [6] = test: Inhibition of colony formation in human LANCaP cells after 2 weeks by crystal violet staining based assay; type: functional, cell-based; conditions: dose 2-20 µM
GES1 = test: Cytotoxicity against human GES1 cells assessed as reduction in cell viability incubated for 72 hrs by MTT assay; type: cell-based; conditions: ges1, 72 h
Androgen receptor = target: T3, Androgen receptor (Homo sapiens, UniProt P10275)
T3 sequence (P10275 whole entry): T1 sequence (whole entry)
Description: Binding affinity to GST-tagged AR ligand binding domain (unknown origin) measured after 4 hrs by fluorescence polarization assay

[7] = target: T1, Androgen receptor (Homo sapiens); test: Antagonist activity at androgen receptor in human LNCaP cells assessed as reduction in DHT-induced endogenous PSA level at 0.1 to 10 uM after 48 hrs by Western blot analysis; type: cell-based; conditions: filed as antagonist, dose 0.1-10 µM
PC-3 = test: Cytotoxicity against human PC-3 cells assessed as reduction in cell viability incubated for 72 hrs by MTT assay; type: functional, cell-based
A549 [8] = test: Cytotoxicity against human A549 cells assessed as reduction in cell viability at 50 uM incubated for 72 hrs by MTT assay; type: functional, cell-based
HepG2 = test: Cytotoxicity against human HepG2 cells assessed as reduction in cell viability at 50 uM incubated for 72 hrs by MTT assay; type: functional, cell-based

With `O=c1cc(C(F)(F)F)c2ccc(OCc3ccc(Br)cc3)cc2o1` the Activity [1] was “inactive”, the Activity (LNCaP [2]) was “Active” and the Activity [3] was “inactive”. For the same compound, the Activity [4] was “Non-Toxic”, the Activity (HeLa) was “Active” and the Activity (A549 [5]) was “inactive”. The Activity (NIH3T3) was “Non-Toxic”, the Activity (CWR22R) was “Active” and the inhibition (LNCaP [6]) was “Dose-dependent effect”. For the same compound, the Activity (GES1) was “Non-Toxic”, the IC50 (Androgen receptor) was 750 nM and the Activity [7] was “Active”. The Activity (PC-3) was “Active”, the Activity (A549 [8]) was “Active” and the Activity (HepG2) was “Active”.
